Results taken from BigSolDB 2.1.

NC(=O)c1ncn([C@@H]2O[C@H](CO)[C@@H](O)[C@H]2O)n1
solubility (mole fraction)
Conditions	278.15 K	283.15 K	288.15 K	293.15 K	298.15 K	303.15 K	308.15 K	313.15 K	318.15 K
in 1,4-dioxane	–	7.06e-05	0.000101	0.000145	0.000203	0.000282	0.000387	0.000527	0.000712
in acetonitrile	8.6e-06	1.33e-05	1.94e-05	2.77e-05	3.96e-05	5.64e-05	7.88e-05	0.00011	0.00015
in methanol	0.000379	0.000517	0.000711	0.000952	0.00128	0.00171	0.00223	0.00293	0.00379
in n-propanol	5.99e-05	8.69e-05	0.000122	0.000171	0.000242	0.000332	0.000455	0.000617	0.000829
in water	0.0058	0.00775	0.0104	0.0135	0.0174	0.0219	0.0273	0.0335	0.0405
